According to patent publication US12264158B2, “Protein kinase MKK4 inhibitors for promoting liver regeneration or reducing or preventing hepatocyte death” (HEPAREGENIX GMBH, priority 2018, dated 2025):

How the values were obtained:
MKK4 active = target: T1, MKK4 active (Homo sapiens, UniProt P45985); test: Radiometric protein kinase assay, MKK4 active; type: biochemical; conditions: substrate JNK1 KRKR, ATP 0.2 μM, read-out: MKK4, potency derived from IC50-values
T1 construct: purchased ProQinase #0948-0000-1
T1 sequence (P45985 1-399): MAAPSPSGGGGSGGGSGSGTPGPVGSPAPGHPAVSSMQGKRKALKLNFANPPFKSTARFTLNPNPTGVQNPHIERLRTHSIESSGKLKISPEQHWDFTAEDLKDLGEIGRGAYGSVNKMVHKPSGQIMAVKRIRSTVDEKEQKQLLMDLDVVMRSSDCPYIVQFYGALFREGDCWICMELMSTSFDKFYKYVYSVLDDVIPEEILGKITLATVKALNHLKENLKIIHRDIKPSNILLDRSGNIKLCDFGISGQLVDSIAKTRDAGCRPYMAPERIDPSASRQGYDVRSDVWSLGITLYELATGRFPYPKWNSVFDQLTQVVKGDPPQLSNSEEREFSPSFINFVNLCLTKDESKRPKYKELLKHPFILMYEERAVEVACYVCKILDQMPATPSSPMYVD
Method: (§1) A radiometric protein kinase assay was used for measuring the kinase activity of the respective protein kinases. All kinase assays were performed in 96-well polypropylene plates. After the reactions were stopped, the assay mixtures were transferred to 96-well MSFC filter-plates (Millipore). The reaction mix was passed through the filter membrane by aspiration, the membrane was washed 3 times with 150 mM H3PO4, once with ethanol, dried and liquid scintillation cocktail was added. Radioactivity was determined by counting of the samples in a Microbeta multiwell scintillation counter (Wallac).

MKK4 = target: T2, MKK4 (Homo sapiens, UniProt P45985); test: KINOMEscan competition binding assay, MKK4 potency; conditions: concentration of 100 nM
T2 construct: S84/D399; host or cells: HEK-293
T2 sequence (P45985 84-399): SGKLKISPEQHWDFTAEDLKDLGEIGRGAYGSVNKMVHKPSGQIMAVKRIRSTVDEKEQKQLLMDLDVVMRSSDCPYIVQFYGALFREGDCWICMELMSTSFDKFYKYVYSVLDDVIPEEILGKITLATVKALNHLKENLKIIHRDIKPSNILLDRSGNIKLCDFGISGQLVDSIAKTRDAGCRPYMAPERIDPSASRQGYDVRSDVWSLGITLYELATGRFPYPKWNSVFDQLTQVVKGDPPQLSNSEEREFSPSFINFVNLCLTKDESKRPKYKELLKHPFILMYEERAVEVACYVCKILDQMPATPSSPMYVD
Method: (§2) The assay was performed by combining three components: DNA-tagged kinase; immobilized ligand; and a test compound. The ability of the test compound to compete with the immobilized ligand was measured via quantitative PCR of the DNA tag. The technology is described in detail in Fabian, M. A. et al. A small molecule-kinase interaction map for clinical kinase inhibitors. Nat. […] M. W. et al. A quantitative analysis of kinase inhibitor selectivity, Nat.
(§3) For investigation of the affinity to MKK4, MKK7 and JNK1, the kinases were produced in HEK-293 cells and subsequently tagged with DNA for qPCR detection. […] The liganded beads were blocked with excess biotin and washed with blocking buffer (SEABLOCK™ (Pierce), 1% BSA, 0.05% TWEEN®20, 1 mM DTT) to remove unbound ligand and to reduce nonspecific binding. […] All reactions were performed in polystyrene 96-well plates in a final volume of 0.135 mL. […] The kinase concentration in the eluates was measured by qPCR.
(§4) The test compounds were provided as 10 mM stock solutions. The test solutions at indicated final concentrations were prepared at DiscoverX.

MKK7 = target: T3, MKK7 (Homo sapiens, UniProt O14733); test: KINOMEscan competition binding assay, selectivity against off-target MKK7; conditions: concentration of 100 nM
T3 construct: M1/R419; host or cells: HEK-293
T3 sequence (O14733 1-419): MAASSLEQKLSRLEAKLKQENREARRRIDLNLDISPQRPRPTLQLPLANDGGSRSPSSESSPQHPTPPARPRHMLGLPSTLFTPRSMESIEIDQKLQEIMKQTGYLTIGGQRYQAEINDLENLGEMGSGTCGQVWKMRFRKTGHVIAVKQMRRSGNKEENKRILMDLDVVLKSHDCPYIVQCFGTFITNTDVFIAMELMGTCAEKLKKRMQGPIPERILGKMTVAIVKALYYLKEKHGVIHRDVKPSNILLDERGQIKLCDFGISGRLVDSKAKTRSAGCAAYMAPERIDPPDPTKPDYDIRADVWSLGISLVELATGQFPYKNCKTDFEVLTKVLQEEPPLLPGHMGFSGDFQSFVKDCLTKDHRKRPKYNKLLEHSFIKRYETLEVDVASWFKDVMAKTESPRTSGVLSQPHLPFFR
Method: as §2, §3, §4

JNK1 = target: T4, JNK1 (Homo sapiens, UniProt P45983); test: KINOMEscan competition binding assay, selectivity against off-target JNK1; conditions: concentration of 100 nM
T4 construct: M1/Q384; host or cells: HEK-293
Method: as §2, §3, §4

BRaf = BRaf (Homo sapiens, UniProt P15056); test: KINOMEscan competition binding assay, selectivity against off-target BRaf; conditions: concentration of 100 nM
Method: as §2, §4

MEKK2 = target: T5, MEKK2 (Homo sapiens, UniProt Q9Y2U5); test: Radiometric protein kinase assay, MEKK2; type: biochemical; conditions: substrate Casein, ATP 0.2 μM; read-out: MEKK2, potency derived from IC50-values
T5 construct: purchased ProQinase #0583-0000-1
T5 sequence (Q9Y2U5 1-619): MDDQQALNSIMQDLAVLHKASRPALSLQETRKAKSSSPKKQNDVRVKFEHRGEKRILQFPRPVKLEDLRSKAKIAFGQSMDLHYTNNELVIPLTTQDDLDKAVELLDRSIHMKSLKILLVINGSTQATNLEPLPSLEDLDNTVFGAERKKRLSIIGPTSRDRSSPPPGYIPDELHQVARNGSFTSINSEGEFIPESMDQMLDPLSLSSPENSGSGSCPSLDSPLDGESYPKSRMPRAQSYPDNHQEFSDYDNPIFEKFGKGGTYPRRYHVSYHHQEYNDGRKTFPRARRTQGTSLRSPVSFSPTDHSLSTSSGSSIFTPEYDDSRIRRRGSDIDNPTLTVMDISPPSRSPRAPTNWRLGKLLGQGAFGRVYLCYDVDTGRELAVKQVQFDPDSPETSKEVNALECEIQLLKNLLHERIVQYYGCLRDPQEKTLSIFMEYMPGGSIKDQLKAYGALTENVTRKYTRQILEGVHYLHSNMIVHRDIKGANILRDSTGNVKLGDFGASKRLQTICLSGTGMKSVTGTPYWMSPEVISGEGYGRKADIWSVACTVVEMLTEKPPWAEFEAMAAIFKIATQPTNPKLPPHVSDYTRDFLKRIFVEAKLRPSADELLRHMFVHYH
Method: as §1

T4 sequence (P45983 1-384 isoform P45983-2): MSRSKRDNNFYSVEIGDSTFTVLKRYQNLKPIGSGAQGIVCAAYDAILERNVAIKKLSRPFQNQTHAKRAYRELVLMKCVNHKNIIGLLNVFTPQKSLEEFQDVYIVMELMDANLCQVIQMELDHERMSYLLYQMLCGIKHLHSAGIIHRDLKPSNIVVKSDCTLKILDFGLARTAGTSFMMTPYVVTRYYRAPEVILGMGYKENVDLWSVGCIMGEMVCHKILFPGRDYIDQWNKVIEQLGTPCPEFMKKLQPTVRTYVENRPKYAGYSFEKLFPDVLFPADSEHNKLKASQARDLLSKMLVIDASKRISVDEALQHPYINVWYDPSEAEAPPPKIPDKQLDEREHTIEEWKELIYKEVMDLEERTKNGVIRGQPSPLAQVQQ
Sequence of BRaf (P15056 whole entry): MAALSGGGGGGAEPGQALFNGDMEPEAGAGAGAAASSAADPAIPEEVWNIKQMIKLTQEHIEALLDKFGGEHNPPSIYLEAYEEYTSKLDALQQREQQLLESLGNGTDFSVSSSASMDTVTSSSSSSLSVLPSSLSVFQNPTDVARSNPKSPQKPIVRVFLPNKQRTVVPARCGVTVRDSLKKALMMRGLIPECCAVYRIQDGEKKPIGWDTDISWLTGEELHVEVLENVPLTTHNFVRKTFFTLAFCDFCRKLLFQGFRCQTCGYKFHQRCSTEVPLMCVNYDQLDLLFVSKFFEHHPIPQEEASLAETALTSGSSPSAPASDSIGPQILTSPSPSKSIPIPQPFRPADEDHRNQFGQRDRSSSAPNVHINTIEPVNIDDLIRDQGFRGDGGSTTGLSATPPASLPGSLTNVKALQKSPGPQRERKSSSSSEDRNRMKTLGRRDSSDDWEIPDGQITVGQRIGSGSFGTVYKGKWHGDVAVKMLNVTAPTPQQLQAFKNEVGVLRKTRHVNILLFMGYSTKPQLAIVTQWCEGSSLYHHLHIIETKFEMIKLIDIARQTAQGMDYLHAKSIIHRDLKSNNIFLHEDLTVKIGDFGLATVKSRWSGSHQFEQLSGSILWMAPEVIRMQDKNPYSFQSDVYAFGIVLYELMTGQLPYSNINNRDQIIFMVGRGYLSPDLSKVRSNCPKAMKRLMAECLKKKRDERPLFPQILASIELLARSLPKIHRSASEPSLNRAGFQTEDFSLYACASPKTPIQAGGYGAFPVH

Row | SMILES | IC50 (MKK4 active) [nM] | IC50 (MEKK2) [nM] | other results
1 | CS(=O)(=O)Nc1c(F)ccc(C(=O)c2n[nH]c3ncc(-c4ccc(-c5nnn[nH]5)cc4)cc23)c1F [Example 54a, N-[2,6-difluoro-3-[5-[4-(1H-tetrazol-5-yl)phenyl]-1H-pyrazolo[3,4-b]pyridine-3-carbonyl]phenyl]methanesulfonamide] | < 500 | – | –
2 | CS(=O)(=O)Nc1c(F)ccc(C(=O)c2n[nH]c3ncc(-c4ccc(C(N)=O)cc4)cc23)c1F [Example 54b, 4-[3-[2,4-difluoro-3-(methanesulfonamido)benzoyl]-1H-pyrazolo[3,4-b]pyridin-5-yl]benzamide] | < 500 | – | –
3 | CS(=O)(=O)Nc1c(F)ccc(C(=O)c2n[nH]c3ncc(-c4ccc(S(N)(=O)=O)cc4)cc23)c1F [Example 54c, 4-[3-[2,4-difluoro-3-(methanesulfonamido)benzoyl]-1H-pyrazolo[3,4-b]pyridin-5-yl]benzenesulfonamide] | < 500 | – | –
4 | CS(=O)(=O)Nc1c(F)ccc(C(=O)c2n[nH]c3ncc(-c4ccc(C(=O)O)cc4)cc23)c1F [Example 55, 4-[3-[2,4-difluoro-3-(methanesulfonamido)benzoyl]-1H-pyrazolo[3,4-b]pyridin-5-yl]benzoic acid] | < 500 | – | –
5 | CCCS(=O)(=O)Nc1c(F)ccc(C(=O)c2n[nH]c3ncc(-c4ccc(C(=O)O)cc4)cc23)c1F [Example 62, 4-(3-(2,4-difluoro-3-(propylsulfon-amido)benzoyl)-1H-pyrazolo[3,4-b]pyridin-5-yl)benzoic acid] | < 500 | – | MKK4, residual percent of control binding (PoC) (MKK4): +++ (PoC < 1); Selectivity vs. MKK7, ratio PoC(MKK7)/PoC(MKK4) (MKK7): +++ (PoC(MKK7)/PoC(MKK4) ≥ 30); Selectivity vs. JNK1, ratio PoC(JNK1)/PoC(MKK4) (JNK1): +++ (PoC(JNK1)/PoC(MKK4) ≥ 30); Selectivity vs. BRaf, ratio PoC(BRaf)/PoC(MKK4) (BRaf): +++ (PoC(BRaf)/PoC(MKK4) ≥ 30)
6 | CCCS(=O)(=O)Nc1c(F)ccc(C(=O)c2n[nH]c3ncc(-c4ccccc4Cl)cc23)c1F [Example 64, N-(3-(5-(2-chlorophenyl)-1H-pyrazolo[3,4-b]pyridine-3-carbonyl)-2,6-difluorophenyl)propane-1-sulfonamide] | < 500 | – | –
7 | CCCS(=O)(=O)Nc1c(F)ccc(C(=O)c2n[nH]c3ncc(-c4ccc(C(C)C)cc4)cc23)c1F [Example 65, N-(2,6-difluoro-3-(5-(4-isopropyl-phenyl)-1H-pyrazolo[3,4-b]pyridine-3-carbonyl)phenyl)propane-1-sulfonamide] | – | 1000 to 10000 | –
8 | CCCS(=O)(=O)Nc1c(F)ccc(C(=O)c2n[nH]c3ncc(-c4ccc(F)cc4C)cc23)c1F [Example 66, N-(2,6-difluoro-3-(5-(4-fluoro-2-methylphenyl)-1H-pyrazolo[3,4-b]pyridine-3-carbonyl)phenyl) propane-1-sulfonamide] | – | 1000 to 10000 | –
9 | O=C(c1ccc(F)c(NS(=O)(=O)Cc2ccccc2)c1F)c1n[nH]c2ncc(-c3ccncc3)cc12 [Example 68, N-[2,6-difluoro-3-(5-pyridin-4-yl-1H-pyrazolo[3,4-b]pyridine-3-carbonyl)phenyl]-1-phenylmethanesulfonamide] | < 500 | – | MKK4, residual percent of control binding (PoC) (MKK4): +++ (PoC < 1); Selectivity vs. MKK7, ratio PoC(MKK7)/PoC(MKK4) (MKK7): +++ (PoC(MKK7)/PoC(MKK4) ≥ 30); Selectivity vs. JNK1, ratio PoC(JNK1)/PoC(MKK4) (JNK1): +++ (PoC(JNK1)/PoC(MKK4) ≥ 30); Selectivity vs. BRaf, ratio PoC(BRaf)/PoC(MKK4) (BRaf): +++ (PoC(BRaf)/PoC(MKK4) ≥ 30)
10 | CCCS(=O)(=O)Nc1c(F)ccc(C(=O)c2n[nH]c3ncc(-c4ccc(S(N)(=O)=O)cc4C)cc23)c1F [Example 70, 4-(3-(2,4-difluoro-3-(propylsulfonamido)benzoyl)-1H-pyrazolo[3,4-b]pyridin-5-yl)-3-methylbenzenesulfonamide] | – | 500 to 1000 | –
11 | CCCS(=O)(=O)Nc1c(F)ccc(C(=O)c2n[nH]c3ncc(-c4cnc(C(F)(F)F)nc4)cc23)c1F [Example 71, N-(2,6-difluoro-3-(5-(2-(trifluoromethyl)pyrimidin-5-yl)-1H-pyrazolo[3,4-b]pyridine-3-carbonyl)phenyl)propane-1-sulfonamide] | – | > 10000 | –
12 | CCCS(=O)(=O)Nc1c(F)ccc(C(=O)c2n[nH]c3ncc(-c4ccc(Cl)cc4C)cc23)c1F [Example 72] | – | 1000 to 10000 | –
13 | CCCS(=O)(=O)Nc1c(F)ccc(C(=O)c2n[nH]c3ncc(-c4ccc(C5N=NN=N5)cc4)cc23)c1F [Example 74, N-(3-(5-(4-(1H-tetrazol-5-yl)phenyl)-1H-pyrazolo[3,4-b]pyridine-3-carbonyl)-2,6-difluorophenyl)propane-1-sulfonamide] | – | 1000 to 10000 | –
14 | O=C(c1ccc(F)c(NS(=O)(=O)Cc2ccccc2)c1F)c1n[nH]c2ncc(-c3ccc(C4N=NN=N4)cc3)cc12 [Example 75, N-(3-(5-(4-(1H-tetrazol-5-yl)phenyl)-1H-pyrazolo[3,4-b]pyridine-3-carbonyl)-2,6-difluorophenyl)-1-phenylmethanesulfonamide] | – | 1000 to 10000 | –
15 | CCCS(=O)(=O)Nc1c(F)ccc(C(=O)c2n[nH]c3ncc(-c4ccc(O)cc4)cc23)c1F [Example 76, N-(2,6-difluoro-3-(5-(4-hydroxyphenyl)-1H-pyrazolo[3,4-b]pyridine-3-carbonyl)phenyl)propane-1-sulfonamide] | < 500 | – | –
